13 compounds from ChEMBL document CHEMBL1144375, “Solid-phase synthesis of naphthylamidines as factor VIIa/tissue factor inhibitors” (Bioorg Med Chem Lett, 2005) can be followed below.

The target of one assay is Prothrombin (Homo sapiens, UniProt P00734). The assay is described as follows: Inhibition constant towards human thrombin.
Another assay addresses T1, Coagulation factor VII (Homo sapiens, UniProt P08709).
T1 sequence (P08709 whole entry): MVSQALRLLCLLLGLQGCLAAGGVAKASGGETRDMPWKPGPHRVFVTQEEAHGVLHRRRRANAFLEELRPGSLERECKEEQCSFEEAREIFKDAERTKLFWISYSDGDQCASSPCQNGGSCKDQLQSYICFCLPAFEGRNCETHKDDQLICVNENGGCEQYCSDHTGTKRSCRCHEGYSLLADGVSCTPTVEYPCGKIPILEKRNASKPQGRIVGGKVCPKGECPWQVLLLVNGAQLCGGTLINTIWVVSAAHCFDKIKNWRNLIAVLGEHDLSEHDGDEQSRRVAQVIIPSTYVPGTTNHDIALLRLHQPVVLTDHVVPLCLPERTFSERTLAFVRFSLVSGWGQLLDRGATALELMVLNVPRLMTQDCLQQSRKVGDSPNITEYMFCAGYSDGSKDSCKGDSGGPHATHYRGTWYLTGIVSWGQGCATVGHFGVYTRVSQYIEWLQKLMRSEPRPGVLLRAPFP
The assay is described as follows: Inhibition constant towards human coagulation factor VII.

The target in a further assay is Coagulation factor X (Homo sapiens, UniProt P00742). The assay is described as follows: Inhibition constant towards human coagulation factor X.
Sequence of Coagulation factor X (P00742 41-179 limits assumed): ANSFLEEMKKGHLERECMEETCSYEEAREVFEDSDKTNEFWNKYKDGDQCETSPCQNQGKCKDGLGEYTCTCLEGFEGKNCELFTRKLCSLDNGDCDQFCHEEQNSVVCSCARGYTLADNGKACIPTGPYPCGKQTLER
Sequence of Coagulation factor X (P00742 235-488 limits assumed): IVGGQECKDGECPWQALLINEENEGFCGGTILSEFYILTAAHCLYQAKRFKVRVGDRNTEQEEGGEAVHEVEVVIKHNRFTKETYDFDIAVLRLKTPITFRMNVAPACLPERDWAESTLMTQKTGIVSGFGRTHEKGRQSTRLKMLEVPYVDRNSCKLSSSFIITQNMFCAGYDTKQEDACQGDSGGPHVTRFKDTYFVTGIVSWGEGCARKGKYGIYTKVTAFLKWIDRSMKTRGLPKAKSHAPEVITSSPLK
Another assay deals with T2, Serine protease 1 (Bos taurus, UniProt P00760).
T2 sequence (P00760 whole entry): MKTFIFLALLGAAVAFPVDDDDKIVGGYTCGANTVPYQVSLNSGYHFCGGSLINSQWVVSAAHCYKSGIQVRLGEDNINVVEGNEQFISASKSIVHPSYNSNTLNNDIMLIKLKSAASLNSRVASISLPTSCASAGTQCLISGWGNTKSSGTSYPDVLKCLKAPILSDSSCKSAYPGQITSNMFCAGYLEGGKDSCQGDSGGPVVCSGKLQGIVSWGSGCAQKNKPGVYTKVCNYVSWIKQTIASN
The experiment in a line: Inhibition constant towards bovine trypsin.

For `CC(C)CCN(Cc1ccc2ccc(C(=N)N)cc2c1)C(=O)c1ccc2ccccc2c1`, the Ki was determined as 486 nM at Prothrombin, 783 nM on Coagulation factor VII, 512 nM at Coagulation factor X and 460 nM at Serine protease 1.
`CN1CCCC1CCN(Cc1ccc2ccc(C(=N)N)cc2c1)C(=O)c1cccc2ccccc12` (configuration not stated): the Ki was over 5000 nM at Prothrombin, 142 nM on Coagulation factor VII, 111 nM on Coagulation factor X and 433 nM at Serine protease 1.
Consider `N=C(N)c1ccc2ccc(CN(CCc3ccccn3)C(=O)c3cccc4ccccc34)cc2c1`, for which the Ki was 4760 nM on Prothrombin, 195 nM at Coagulation factor VII, 104 nM at Coagulation factor X and 299 nM on Serine protease 1.
Regarding `N=C(N)c1ccc2ccc(CN(CCCc3ccccc3)C(=O)c3cccc4ccccc34)cc2c1`, the Ki was 1200 nM on Prothrombin, 207 nM at Coagulation factor VII, 632 nM on Coagulation factor X and 925 nM at Serine protease 1.
For `N=C(N)c1ccc2ccc(CN(CCc3cnc[nH]3)C(=O)c3cccc4ccccc34)cc2c1`, the Ki at Prothrombin was over 5000 nM; on Coagulation factor VII, 305 nM; at Coagulation factor X, 264 nM; at Serine protease 1, 378 nM.
Turning to `N=C(N)c1ccc2ccc(CN(CCC[n+]3cc[nH]c3)C(=O)c3cccc4ccccc34)cc2c1`, the Ki at Prothrombin is over 5000 nM; on Coagulation factor VII, 282 nM; on Coagulation factor X it was 731 nM; at Serine protease 1, 752 nM.
On the same counts, the results for `CC1CCCCN1CCCN(Cc1ccc2ccc(C(=N)N)cc2c1)C(=O)c1cccc2ccccc12` (configuration not stated) are over 5000 nM, 646 nM, 137 nM and 367 nM.
On to `N=C(N)c1ccc2ccc(CN(CCCN3CCOCC3)C(=O)c3cccc4ccccc34)cc2c1`, for which the Ki on Prothrombin is over 5000 nM; at Coagulation factor VII, 121 nM; on Coagulation factor X, 442 nM; at Serine protease 1 it was 378 nM.
Taken in the same sequence, the figures for `CN1CCN(CCCN(Cc2ccc3ccc(C(=N)N)cc3c2)C(=O)c2cccc3ccccc23)CC1` were 500 nM, 1310 nM, 136 nM and 500 nM.
`N=C(N)c1ccc2ccc(CN(CCc3ccc(F)cc3)C(=O)c3cccc4ccccc34)cc2c1`: the Ki on Prothrombin worked out at 1680 nM; at Coagulation factor VII it was 194 nM; at Coagulation factor X it was 40 nM; on Serine protease 1 it was 501 nM.
For the compound `COc1ccc(CCN(Cc2ccc3ccc(C(=N)N)cc3c2)C(=O)c2cccc3ccccc23)cc1OC`, the Ki on Prothrombin was determined as 2510 nM; at Coagulation factor VII it was 133 nM; at Coagulation factor X, 417 nM; on Serine protease 1, 105 nM.
On to `CC(C)CCN(Cc1ccc2ccc(C(=N)N)cc2c1)C(=O)c1cccc2ccccc12`, for which the Ki on Prothrombin came to 1160 nM; at Coagulation factor VII it was 93 nM; on Coagulation factor X, 262 nM; at Serine protease 1, 698 nM.
On the same counts, the results for `CC(C)CC(C(=O)O)N(Cc1ccc2ccc(C(=N)N)cc2c1)C(=O)c1cccc2ccccc12` (single isomer, unassigned) are over 5000 nM, 1010 nM, over 5000 nM and 1610 nM.
